{"source": "patent US20260191818A1", "about": "(University of South Carolina, priority 2022, published 2026)", "key": {"[1]": {"test_system": "tibialis anterior (TA) muscle", "test": "Muscle histology (H&E), myofibrillar cross sectional area of tibialis anterior", "assay_type": "in vivo, CD2F1 mice", "conditions": "C26+5FU+Quer vs C26+5FU", "description": "Skeletal muscle histology was assessed via hematoxylin and eosin (H&E) staining on tibialis anterior (TA) muscle cryosections. The TA muscle was dissected, snap-frozen in liquid nitrogen with Optimum Cutting Temperature (OCT) embedding medium placed on the most distal portion of the TA and stored in −80° C. Tissue was acclimated to the cryostat temperature (−24° C.) prior to collection of transverse sections ([…]) on Fisherbrand Superfrost Plus Microscope Slides. TA tissue slides were then stored at −80° C. until staining. Slides were fixed in ice-cold acetone and H&E staining was completed as previously described. […] Cancer Biol Ther, 2022. 23(1); and VanderVeen, B. N., et al., 5-Fluorouracil disrupts skeletal muscle immune cells and impairs skeletal muscle repair and remodeling. J Appl Physiol (1985), 2022. 133(4): p. 834-849. Images of H&E stains were taken at 20× and 40× magnification using a Keyence BZX800 microscope. Muscle cross sectional area (mCSA) was measured using ImageJ by measuring the circumference of 500-700 myofibers/mouse (n=3-5/group)."}, "CD2F1 mice": {"test_system": "CD2F1 mice", "conditions": "mouse, in vivo; cited from earlier work"}, "IL-6": {"test_system": "IL-6", "test": "Plasma interleukin-6 ELISA", "assay_type": "in vivo, CD2F1 mice", "conditions": "C26+5FU+Quer vs C26+5FU", "description": "Blood was collected retro orbitally prior to euthanasia while the mice were anesthetized. Whole blood was collected and put in an EDTA-coated tubes and store on ice prior to centrifugation (3,000 g at 4° C. for 10 min) for plasma collection. A commercially available IL-6 (SEQ ID NO: 9) enzyme-linked immunosorbent assay (ELISA) kit was obtained from BioLegend (San Diego, CA, USA). Briefly, a Costar clear 96-well plate (Corning, NY, USA) was coated with IL-6 (SEQ ID NO: 9) capture antibody and allowed to incubate overnight. The plate was then blocked with assay diluent buffer, and IL-6 (SEQ ID NO: 9) standards and plasma samples were added to the plate. Wells were then washed and detection antibody was incubated in each well for 1 h. The wells were again washed and then incubated with avidin horseradish peroxidase reagent. After several washes, 3,3′,5,5′-tetramethylbenzidine substrate was added, and the reaction was developed for 20 min. The reaction was stopped with sulfuric acid, and absorbance was measured."}}}
{"smiles": "O=c1c(O)c(-c2ccc(O)c(O)c2)oc2cc(O)cc(O)c12", "note": "[quercetin, 3,4,5,7-pentahydroxylflavone]", "values": [{"measurement": "myofibrillar fiber size distribution", "setting": "[1]", "result": "rightward shift"}, {"measurement": "increase in TA mean CSA", "setting": "[1]; H&E", "result": 32.0, "unit": "%"}, {"measurement": "sub-chronic toxicity", "setting": "CD2F1 mice", "result": "no deleterious effects or toxicities"}, {"measurement": "plasma IL-6", "setting": "IL-6", "result": "did not appear that quercetin decreased"}]}
